Source: patent publication US20230077723A1, “N-SUBSTITUTED-3,4-(FUSED 5-RING)-5-PHENYL-PYRROLIDINE-2-ONE COMPOUNDS AS INHIBITORS OF ISOQC AND/OR QC ENZYME” (Scenic Immunology B.V., priority 2019, published 2023)

Columns and labels:
[1] = target: T1, human isoQC (S53-L382) (Homo sapiens, UniProt Q9NXS2); experiment: Assay 3 - isoQC potency, fluorescent enzymatic assay; assay type: biochemical; settings: fluorescent read-out; read-out: isoQc Pot. Assay No. 3
T1 construct: enzymatically active region of human isoQC (S53-L382; see, e.g., Huang et al., 2011); GST-Enterokinase site (N, cleaved yes); made in house; host or cells: E. coli
Protocol: For this assay specifically, isoQC production was performed slightly different than described in the general methods: The Golgi luminal, enzymatically active region of human isoQC (S53-L382; see, e.g., Huang et al., 2011) was obtained by expression in E. coli of an N-terminally GST Enterokinase and C-terminally 6×His tagged construct in the pET41(+) vector and subsequent purification using Ni-NTA IMAC. Enterokinase digestion ensued, followed by another Ni-NTA IMAC purification, Superdex75 based size exclusion and finally a spin concentration using a 10 kDa molecular weight cutoff. The final protein is formulated in 50 mM Tris-HCl, 150 mM NaCl, 50% Glycerol, pH 7.8.
(§1) Pyroglutamylation was measured by conversion of glutamine-4-amino-7-methylcoumarine (H-Gln-AMC, Bachem) to pyroglutamyl-AMC, which is subsequently a specific substrate for pyroglutamylaminopeptidase (pGAPase, Qiagen), releasing free AMC which can be fluorescently detected. For a typical inhibition assay, 7.5 μL aliquots of threefold dilutions of test compound in 50 mM Tris pH8 buffer were plated in 384-well plates. 15 μL 20 μM h-Gln-AMC (diluted from a 40 mM stock dissolved in 25 mM HEPES using 50 mM Tris-HCl pH 8.0) was added to each well. Finally, 7.5 μL, 3 ng/μL recombinant isoQC enzyme was added and the reaction mixture was incubated for 1 hour at 37° C. A 5 minute incubation at 98° C. was then performed to denature the isoQC enzyme and stop the reaction.
(§2) To detect the amount of pyroglutamyl-AMC formed, a 0.125 U/mL pGAPase enzyme diluted in 50 mM Tris-HCl pH 8.0 containing 10 mM dithiothreitol (DTT) solution was prepared. 25 μL of the pyroglutamylation reaction mixture was transferred into an empty plate and to that, 25 μL of the pGAPase enzyme solution was added. Plates were then incubated for 25 minutes at room temperature before fluorescence readings were taken on an Envision2 plate reader with excitation set at 380 nm and emission at 450 nm.
(§3) DMSO concentrations during the assay never exceeded 1% and activities were compared to controls containing only the same amount of DMSO and no test compound. Controls were taken along containing pyroglutamylated-AMC (Bachem, dissolved at 10 mM in DMSO) instead of H-Gln-AMC to control for pGAPase inhibition. IC50 values are calculated using non-linear regression analysis with GraphPad Prism software.

[2] = target: T2, Recombinant QC enzyme (residues 33-361 of uniprot ID Q16769) (Homo sapiens, UniProt Q16769); experiment: Assay 5 - QC potency, fluorescent enzymatic assay; assay type: biochemical; settings: fluorescent read-out; read-out: QC Pot. Assay No. 5
T2 construct: bacterial expression of residues 33-361 of uniprot ID Q16769; His tag (cleaved yes); made in house; host or cells: bacterial expression (pET32a)
Text: Recombinant QC enzyme was produced by bacterial expression of residues 33-361 of uniprot ID Q16769, fused to a His tag, codon optimized and cloned into the pET32a plasmid backbone. After scale-up, expression and lysis, protein was purified by Ni-NTA IMAC, dialysed in the presence of Factor Xa, further purified by Ni-NTA reverse IMAC and finally filtrated for size on a Superdex 200 16/60 column. Final protein was concentrated using a spin concentrator at 10 kDa molecular weight cutoff and formulated in 150 mM NaCl, 50 mM Tris-HCl, 50% Glycerol, pH 8.0.
as §1, with “QC” for “isoQC”
as §2
as §3, with “inhibition.” for “inhibition. IC50 values are calculated using non-linear regression analysis with GraphPad Prism software.”
IC50 values are calculated using non-linear regression analysis with GraphPad Prism software.

[3] = test system: pyroglutamylated CD47 (pE-CD47) in KBM7 cells; experiment: Assay 6 - cell-based potency assay (pE-CD47 CC2C6 staining vs total CD47); parameters: species or system human; settings: Homo sapiens, KBM-7, 72 h, CC2C6 signal, read-out: Cell Pot. Assay No. 6
Method in brief: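 KBM7 cells received a 10-point 2-fold compound series for 72 h at 37 °C, then were stained with anti-CD47 clones 2D3 (total) and CC2C6 (pyroglutamylated) and analysed by flow cytometry on DAPI-negative cells. MFI was scaled between wild-type and CD47- or QPCTL-knockout cells; IC50 came from 3-parameter logistic fit of CC2C6 signal, top fixed at 1.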

T1 sequence (Q9NXS2 53-382): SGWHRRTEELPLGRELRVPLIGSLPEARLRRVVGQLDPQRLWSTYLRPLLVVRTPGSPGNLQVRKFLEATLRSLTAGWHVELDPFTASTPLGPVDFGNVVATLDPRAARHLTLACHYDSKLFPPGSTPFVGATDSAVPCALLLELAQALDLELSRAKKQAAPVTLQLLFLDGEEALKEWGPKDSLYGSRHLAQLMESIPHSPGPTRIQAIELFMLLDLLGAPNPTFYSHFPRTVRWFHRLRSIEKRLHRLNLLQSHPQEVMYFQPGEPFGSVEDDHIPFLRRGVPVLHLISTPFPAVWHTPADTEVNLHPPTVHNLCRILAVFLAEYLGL
T2 sequence (Q16769 33-361): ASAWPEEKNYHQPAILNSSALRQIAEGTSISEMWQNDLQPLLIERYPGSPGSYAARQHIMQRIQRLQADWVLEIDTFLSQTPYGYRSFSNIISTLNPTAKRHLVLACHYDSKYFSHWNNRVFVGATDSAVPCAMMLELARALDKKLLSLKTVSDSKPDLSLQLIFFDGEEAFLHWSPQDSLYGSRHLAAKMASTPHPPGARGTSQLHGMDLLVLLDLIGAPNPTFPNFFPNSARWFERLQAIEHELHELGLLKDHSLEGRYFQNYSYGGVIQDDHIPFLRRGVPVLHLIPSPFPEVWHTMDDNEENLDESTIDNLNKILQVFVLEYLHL

Cc1nn(C)c2c1C(c1ccc(-c3cnn(C(F)(F)F)c3)cc1F)N(c1ccc3[nH]cnc3c1)C2=O (centres unmarked) [FRPPO-165]
IC50 [1]: 25 to 100 nM
IC50 [2]: 100 to 5000 nM
IC50 [3]: < 1000 nM

Cc1nn(C)c2c1C(c1ccc(-c3cnc(C(F)(F)F)s3)cc1F)N(c1ccc3[nH]cnc3c1)C2=O (centres unmarked) [FRPPO-164]
IC50 [1]: 100 to 5000 nM
IC50 [2]: 100 to 5000 nM
IC50 [3]: < 1000 nM

O=C1c2[nH]ncc2C(c2ccc(N3CCC(F)(F)C3)cc2F)N1c1ccc2[nH]cnc2c1 (centres unmarked) [FRPPO-171]
IC50 [1]: 100 to 5000 nM
IC50 [2]: 100 to 5000 nM

Cc1nn(C)c2c1C(c1ccc(-n3cc(C(F)(F)F)cn3)cc1F)N(c1ccc3[nH]cnc3c1)C2=O (centres unmarked) [FRPPO-166]
IC50 [1]: 100 to 5000 nM
IC50 [2]: 100 to 5000 nM
IC50 [3]: 1000 to 5000 nM

Cc1noc2c1C(c1ccc(-c3cnn(C(F)(F)F)c3)cc1F)N(c1ccc3[nH]cnc3c1)C2=O (centres unmarked) [FRPPO-176]
IC50 [1]: 25 to 100 nM
IC50 [2]: 100 to 5000 nM

COc1n[nH]c2c1C(c1ccc(N3CCC(F)(F)C3)cc1F)N(c1ccc3[nH]cnc3c1)C2=O (centres unmarked) [FRPPO-173]
IC50 [1]: 25 to 100 nM
IC50 [2]: 25 to 100 nM

Cc1[nH]nc2c1C(c1ccc(N3CCC(F)(F)C3)c(F)c1F)N(c1ccc3[nH]cnc3c1)C2=O (centres unmarked) [FRPPO-161]
IC50 [1]: 25 to 100 nM
IC50 [2]: 25 to 100 nM
IC50 [3]: < 1000 nM

Cc1onc2c1C(c1ccc(-c3cnn(C(F)(F)F)c3)cc1F)N(c1ccc3[nH]cnc3c1)C2=O (centres unmarked) [FRPPO-177]
IC50 [1]: < 25 nM
IC50 [2]: 25 to 100 nM
